According to patent US8551997B2, “Structural-based inhibitors of the glutathione binding site in aldose reductase, methods of screening therefor and methods of use” (The Board of Regents of the University of Texas System, priority 2004, dated 2013):
Like-named read-outs stand apart in the source and are kept apart here.

What was measured:
rat VSMC cells = assay: High glucose-induced TNF-a production in VSMC; type: cell-based
Experimental: Growth-arrested VSMC in 5.5 mM glucose (NG) were preincubated for 1 h without or with apocyanin (25 mM), D609 (100 mM), calphostin C (0.2 mM), N-acetyl cysteine (10 mM) and NF-kB inhibitor (18 mM) (FIG. 4A) and without or with sorbinil or tolrestat (10 mM each) (FIG. 4B) followed by the addition of glucose (19.5 mM) and incubation for the indicated times. AR antisense ablated VSMC were incubated with HG for the indicated times (FIG. 4C).
Growth-arrested VSMC in 5.5 mM glucose (NG) were preincubated for 1 h without or with apocyanin (25 mM), D609 (100 mM), calphostin C (0.2 mM), N-acetyl cysteine (10 mM) and NF-kB inhibitor (18 mM) respectively, followed by the addition of 19.5 mM glucose, after which the cells were incubated for 12 and 24 hrs.

A549 cells [1] = assay: Western blot of Cox-2 and iNOS in A549 cells; type: cell-based, human; conditions: concentration dependent
Experimental: (§1) To examine expression of any of Cox-1, Cox-2, phospho-PKC-2, GAPDH, E2F1, Cyclin D1, Cyclin E, and iNOS proteins, Western blot analyses were carried by known methods (15). Equal amounts of protein from cell extracts were subjected to 12% SDS-PAGE followed by transfer of proteins to nitrocellulose filters, probing with the indicated antibodies, and the antigen-antibody complex was detected by enhanced chemiluminescence (Pierce, Piscataway, N.J., USA).

A549 cells [2] = assay: Flowcytometric cell cycle analysis, A549; type: cell-based, human; conditions: 10% FBS
Experimental: The Caco-2 and A549 cells were grown separately in 6 well plates at a density of approximately 1.5×10^5 cells/well. Growth-arrested Caco-2 cells were pre-incubated with or without sorbinil 20 μM or carrier for 24 h and then stimulated with either 10 ng/ml BFGF or PDGF for another 24 h. After 24 hrs A549 cells were incubated with or without sorbinil at different concentrations for another 24 h.
The Caco-2 and A549 cells were then washed with PBS and harvested by trypsinization. Cellular DNA was stained with low and high salt solutions. Briefly, cells were resuspended in 250 μl of solution A, low salt stain, containing polyetheleneglycol (30 mg/ml), propidium iodide (0.05 mg/ml), triton-x-100 (1 μl/ml), sodium citrate 4 mM, RNAse A 10 μg/ml and incubated at 37° C. for 20 min followed by the addition of 250 μl of solution B, high salt stain containing 400 mM NaCl instead of 4 mM sodium citrate in solution A, and incubated overnight at 4° C. Cell cycle analysis was performed with a minimum of 10,000 events per analysis by using FACScan flow cytometer (Becton, Dickinson and Co., San Jose, Calif., USA).

Caco-2 cells = assay: Western blot of Cox-1 and Cox-2 in Caco-2 cells; type: cell-based, human
Experimental: as §1

mice = conditions: for survival: sorbinil pre-treatment
Experimental: Therefore increasing doses of LPS was administered to determine the dose at which fifty percent lethality occurred (LD50) in the presence or absence of aldose reductase inhibitor (ARI) in order to determine if ARI protected mice for LPS-induced death (FIG. 7D).

HT29-GFP cells = assay: HT29-GFP liver metastasis in nude mice; type: in vivo, mouse; conditions: sorbinil 40 mg/kg body weight in the diet, 34 days
Experimental: For in vivo metastasis studies, 4- to 6-weeks-old male nude^nu/nu mice were obtained from Harlan Sprague Dawley (Indianapolis, Ind.) and housed in clean, pathogen-free rooms in an environment with controlled temperature (22° C.), humidity and a 12 hours light/dark cycle. The mice were fed standard chow (Formula Chow 5008; Purina Mills, St. Louis, Mo.), given tap water ad libitum and were allowed to acclimate for 1 week. Metastatic HT29-GFP cells were injected intrasplenically by known methods.
Briefly, mice were anesthetized with halothane, a small left abdominal flank incision was created and the spleen was exteriorized. HT29-GFP cells were harvested using only trypsin and were resuspended as a single-cell suspension in Hanks Balanced Salt Solution, free of Mg^2+ and Ca^2+. HT29-GFP cells (5×10^6 cells/400 μl) were injected into the spleen with a 27-gauge needle. The spleen was returned to the abdomen and the wound was closed in one layer with wound clips. After 24 hrs spleen was removed and animals were randomized into metastatic control and AR inhibitor, sorbinil group. Control group was fed with normal diet and AR inhibitor group fed with sorbinil (40 mg/kg body weight) in the diet. Mice were killed after 35 days, and metastasis in the liver was evaluated by using the Illumatool TLS (Lightools Research, Encinitas, Calif.). […]

For “(S)-6-fluorospiro[chroman-4,4′-imidazolidine]-2,5′-dione [sorbinil]”, the “basal levels of TNF-a” value (rat VSMC cells; media containing 5.5 mM glucose, mannitol, or 3-OMG) was “did not affect”, the “high glucose-induced TNF-a secretion” value (rat VSMC cells; preincubated 1 h, then 19.5 mM glucose, apocyanin 25 mM, calphostin C 0.2 mM, N-acetyl cysteine 10 mM, sorbinil or tolrestat 10 mM each, or AR antisense ablated) was “prevents” and the “Cox-2 and iNOS expression” value (A549 cells [1]) was “inhibit”. The “percentage of cells in G1” value (A549 cells [2]; 25 μM) was 58.79%, the “percentage of cells in G2” value (A549 cells [2]; 25 μM) was 6.06% and the “percentage of cells in S” value (A549 cells [2]; 25 μM) was 35.14%. For the same substance, the “percentage of cells in G1” value (A549 cells [2]; 50 μM) was 59.24%, the “percentage of cells in G2” value (A549 cells [2]; 50 μM) was 5.47% and the “percentage of cells in S” value (A549 cells [2]; 50 μM) was 35.29%. The “percentage of cells in G1” value (A549 cells [2]; 75 μM) was 64.21%, the “percentage of cells in G2” value (A549 cells [2]; 75 μM) was 5.55% and the “percentage of cells in S” value (A549 cells [2]; 75 μM) was 30.24%. For the same substance, the “percentage of cells in G1” value (A549 cells [2]; 100 μM) was 65.55%, the “percentage of cells in G2” value (A549 cells [2]; 100 μM) was 4.8% and the “percentage of cells in S” value (A549 cells [2]; 100 μM) was 29.75%. For the same substance, the “growth factor-induced Cox-2 protein” value (Caco-2 cells) was “attenuated”, the “levels of constitutive Cox-1 protein” value (Caco-2 cells) was “not affected” and the “GS-DHN-induced Cox-2 expression” value (Caco-2 cells; sorbinil 24 h, GS-DHN-ester 24 h) was “had no effect”. The “HNE and GS-HNE-induced Cox-2 expression” value (Caco-2 cells; sorbinil 24 h, aldehydes 24 h) was “significantly prevented”, the “LD50 for LPS with sorbinil post-treatment” value (mice; sorbinil 2 h after LPS, 48 h survival) was 20 mg/kg and the “LD50 for LPS with sorbinil pre-treatment” value (mice; sorbinil 24 h before LPS, 48 h survival) was 24 mg/kg. For the same substance, the survival (mice; LPS 14 mg/kg) was “approximately 90%”, the survival (mice; LPS 24 mg/kg) was “over 60%” and the “tumor metastasis to the liver (GFP fluorescence, pixel numbers)” value (HT29-GFP cells) was “significant decrease”.
